From PubChem BioAssay AID330 (DTP/NCI, 2004)
“And” between values parts separate entries of the source, which are not always exact repeats. Equal entries are not always repeated. Toxic doses and inconclusive results are not listed. Rule for the calls: active = survival T/C of 150% or more; inactive = T/C below 125% in these data.

Tested on: P388 leukemia ip, CD2F1 mice, survival T/C
Assay: NCI In Vivo Anticancer Drug Screen. Data for tumor model P388 Leukemia (intraperitoneal) in CD2F1 (CDF1) mice
Conditions: endpoint: median survival time, higher = longer survival
Method in brief: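 Mice carrying the transplanted tumor received test compound or vehicle. Survival was recorded in each group, and the value is the treated-group measurement divided by that of the vehicle-treated control group.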

Measured: T/C

[CH3][Sn]([c]1ccccc1)([c]1cccc2ccccc12)[c]1cccc2ccccc12
inactive: dose: 100.0 mg/kg/injection, schedule: Q04DX003 (ip), vehicle: saline with Tween-80 89 % of control | dose: 200.0 mg/kg/injection, schedule: Q04DX003 (ip), vehicle: saline with Tween-80 91 % of control | dose: 400.0 mg/kg/injection, schedule: Q04DX003 (ip), vehicle: saline with Tween-80 88 % of control

CCN(CC)c1cc(=O)n2ccccc2n1
inactive: dose: 60.0 mg/kg/injection, schedule: Q01DX005 (ip), vehicle: Klucel (hydroxypropylcellulose) (HPC) 96 % of control | dose: 120.0 mg/kg/injection, schedule: Q01DX005 (ip), vehicle: Klucel (hydroxypropylcellulose) (HPC) 100 % of control | dose: 240.0 mg/kg/injection, schedule: Q01DX005 (ip), vehicle: Klucel (hydroxypropylcellulose) (HPC) 103 % of control

N#CC1C(=O)NC(=S)NC1c1ccc(C2CC(=O)NC(=S)N2)cc1 (stereo unspecified)
inactive: dose: 50.0 mg/kg/injection, schedule: Q01DX009 (ip), vehicle: saline with Tween-80 104 % of control | dose: 100.0 mg/kg/injection, schedule: Q01DX009 (ip), vehicle: saline with Tween-80 105 % of control | dose: 200.0 mg/kg/injection, schedule: Q01DX009 (ip), vehicle: saline with Tween-80 106 % of control

Cc1ccc(C(=O)CCN(C)C)cc1
inactive: dose: 6.25 mg/kg/injection, schedule: Q01DX009 (ip), vehicle: saline 105 % of control | dose: 12.5 mg/kg/injection, schedule: Q01DX009 (ip), vehicle: saline 100 % of control | dose: 25.0 mg/kg/injection, schedule: Q01DX009 (ip), vehicle: saline 96 % of control | dose: 50.0 mg/kg/injection, schedule: Q01DX009 (ip), vehicle: saline 98 % of control and 106 % of control | dose: 100.0 mg/kg/injection, schedule: Q01DX009 (ip), vehicle: saline 107 % of control

Cc1ccc(N=CN(C)C)c(Cl)c1
inactive: dose: 12.5 mg/kg/injection, schedule: Q04DX003 (ip), vehicle: Klucel (hydroxypropylcellulose) (HPC) 103 % of control | dose: 25.0 mg/kg/injection, schedule: Q04DX003 (ip), vehicle: Klucel (hydroxypropylcellulose) (HPC) 101 % of control
